Read-outs that look alike come from different tables or passages of the source. Where a SMILES comes first, the peptide text is derived from it.
What was measured:
in vitro = conditions: % Viability non-Wnt responsive cells
β-catenin = biological target: T1, β-catenin (Homo sapiens, UniProt P35222); assay: KD50 measurement using competitive fluorescence polarization (FP) with labelled TCF4; assay type: binding; conditions: fluorescence polarization, β-catenin; for Kd: read-out: β-Cat FP KD
T1 sequence (P35222 1-781): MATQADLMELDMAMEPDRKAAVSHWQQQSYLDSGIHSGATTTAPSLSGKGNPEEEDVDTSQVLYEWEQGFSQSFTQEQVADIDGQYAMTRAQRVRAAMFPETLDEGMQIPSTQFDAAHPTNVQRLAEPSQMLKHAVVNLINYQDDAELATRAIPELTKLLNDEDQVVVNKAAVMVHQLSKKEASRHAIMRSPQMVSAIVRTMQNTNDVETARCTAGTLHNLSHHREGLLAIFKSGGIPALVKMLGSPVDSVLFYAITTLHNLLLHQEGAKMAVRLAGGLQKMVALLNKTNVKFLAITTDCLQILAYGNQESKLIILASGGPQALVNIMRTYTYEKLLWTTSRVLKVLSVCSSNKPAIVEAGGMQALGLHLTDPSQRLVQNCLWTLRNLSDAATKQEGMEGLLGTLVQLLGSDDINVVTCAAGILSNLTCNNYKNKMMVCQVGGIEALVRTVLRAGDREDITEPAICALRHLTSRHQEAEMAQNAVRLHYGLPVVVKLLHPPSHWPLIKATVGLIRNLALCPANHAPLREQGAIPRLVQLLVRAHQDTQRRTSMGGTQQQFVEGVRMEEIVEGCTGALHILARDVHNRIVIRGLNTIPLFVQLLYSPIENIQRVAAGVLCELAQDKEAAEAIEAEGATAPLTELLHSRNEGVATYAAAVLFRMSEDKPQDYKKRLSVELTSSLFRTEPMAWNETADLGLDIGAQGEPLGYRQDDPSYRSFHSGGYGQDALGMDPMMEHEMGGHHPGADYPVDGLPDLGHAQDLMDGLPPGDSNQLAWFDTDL
Summary of the method: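 Each compound competes against labelled TCF4 (5 nM) for 100 nM β-catenin at room temperature, tested over 10 nM to 30 uM. Signal: polarization at 470/520 nm excitation/emission. Three repeat experiments were performed.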

[1] = biological target: Wnt-responsive promoter (TCF/LEF); assay: Wnt-dependent luciferase reporter assay; assay type: cell-based, murine
Summary of the method: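 EC50 (uM) derived from inhibition of luminescence in Wnt3a-stimulated murine 3T3 cells expressing luciferase under a TCF/LEF promoter, with peptides added across a concentration range and vehicle as control.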

[2] = % Viability non-Wnt responsive cells

| Kd (β-catenin) | EC50 [1] | β-Cat FP Hill slope (β-catenin) | Compound | viability (in vitro) | viability [2] |
| --- | --- | --- | --- | --- | --- |
| > 30 µM | < 7.5 µM | – | CC[C@H](C)[C@H](NC(=O)[C@H](CC(C)C)NC(=O)[C@H](Cc1ccccc1)NC(=O)[C@H](Cc1c[nH]c2ccccc12)NC(=O)[C@H](CCSC)NC(=O)[C@H](CCCNC(=N)N)NC(=O)[C@H](CO)NC(=O)[C@@H](N)CCSC)C(=O)N[C@@H](CO)C(=O)N[C@@H](Cc1ccccc1)C(=O)N[C@@H](Cc1c[nH]c2ccccc12)C(=O)N[C@@H](CCSC)C(=O)NCC(=O)O [compound 14] (H-MSRMWFLISFWMG-OH) | 98% | – |
| – | < 7.5 µM | – | CC[C@H](C)[C@H](NC(=O)[C@H](CC(C)C)NC(=O)[C@H](Cc1ccccc1)NC(=O)[C@H](Cc1c[nH]c2ccccc12)NC(=O)[C@H](CCSC)NC(=O)[C@H](CCCNC(=N)N)NC(=O)[C@@H](NC(=O)[C@@H](N)CCSC)[C@@H](C)CC)C(=O)N[C@@H](CO)C(=O)N[C@@H](Cc1ccccc1)C(=O)N[C@@H](Cc1c[nH]c2ccccc12)C(=O)NCC(=O)O [compound 15] (H-MIRMWFLISFWG-OH) | 103% | – |
| > 30 µM | 15 to 22.5 µM | – | CC[C@H](C)[C@H](NC(=O)[C@H](CC(C)C)NC(=O)[C@H](Cc1ccccc1)NC(=O)[C@H](Cc1c[nH]c2ccccc12)NC(=O)[C@H](CCSC)NC(=O)[C@H](CCCNC(=N)N)NC(=O)[C@H](CO)NC(=O)[C@@H](N)CCSC)C(=O)N[C@@H](CO)C(=O)N[C@@H](Cc1ccccc1)C(=O)N[C@@H](Cc1c[nH]c2ccccc12)C(=O)N(C)[C@@H](C)C(=O)NCC(=O)O [compound 16] (HELM PEPTIDE1{M.S.R.M.W.F.L.I.S.F.W.[meA].G}$$$$V2.0) | 92% | – |
| 0.4 to 1 µM | < 7.5 µM | 1.66 | CC[C@H](C)[C@H](NC(=O)[C@H](CC(C)C)NC(=O)[C@H](Cc1ccccc1)NC(=O)[C@H](Cc1c[nH]c2ccccc12)NC(=O)[C@@H](N)CCSC)C(=O)N[C@@H](CO)C(=O)N[C@@H](Cc1ccccc1)C(=O)N[C@@H](Cc1c[nH]c2ccccc12)C(=O)NCC(=O)O [compound 17] (H-MWFLISFWG-OH) | 98% | – |
| > 30 µM | > 30 µM | – | CC[C@H](C)[C@@H]1NC(=O)[C@H](CO)NC(=O)[C@H](CCC(=O)O)NC(=O)[C@H](C)N(C)C(=O)[C@@H](N)CCCCNC(=O)CNC(=O)[C@H](Cc2c[nH]c3ccccc23)NC(=O)[C@H](C(C)C)NC(=O)[C@H](CCCNC(=N)N)NC(=O)[C@H](CCC(N)=O)NC(=O)[C@H](C(C)C)NC(=O)[C@H](Cc2c[nH]cn2)NC(=O)[C@H](CCC(=O)O)NC(=O)[C@H](CC(=O)O)NC(=O)[C@H](CC(C)C)NC1=O [compound 18] (HELM PEPTIDE1{K.[meA].E.S.I.L.D.E.H.V.Q.R.V.W.G}$PEPTIDE1,PEPTIDE1,1:R3-15:R2$$$V2.0; bridges inferred) | 90.2% | – |
| > 30 µM | > 30 µM | – | CC[C@H](C)[C@@H]1NC(=O)[C@H](CO)NC(=O)[C@H](CCC(N)=O)NC(=O)[C@H](C)N(C)C(=O)[C@@H](N)CCCCNC(=O)CNC(=O)[C@H](Cc2c[nH]c3ccccc23)NC(=O)[C@H](C(C)C)NC(=O)[C@H](CCCNC(=N)N)NC(=O)[C@H](CCC(N)=O)NC(=O)[C@H](C(C)C)NC(=O)[C@H](Cc2c[nH]cn2)NC(=O)[C@H](CCC(=O)O)NC(=O)[C@H](CC(=O)O)NC(=O)[C@H](CC(C)C)NC1=O [compound 19] (HELM PEPTIDE1{K.[meA].Q.S.I.L.D.E.H.V.Q.R.V.W.G}$PEPTIDE1,PEPTIDE1,1:R3-15:R2$$$V2.0; bridges inferred) | 104% | – |
| – | > 30 µM | – | CC[C@H](C)[C@H](NC(=O)[C@H](CO)NC(=O)[C@H](CCC(=O)O)NC(=O)[C@H](Cc1c[nH]c2ccccc12)NC(=O)[C@@H](N)CCSC)C(=O)N[C@@H](CC(C)C)C(=O)N[C@@H](CC(=O)O)C(=O)N[C@@H](CCC(=O)O)C(=O)N[C@@H](Cc1c[nH]cn1)C(=O)N[C@H](C(=O)N[C@@H](CCC(N)=O)C(=O)N[C@@H](CCCNC(=N)N)C(=O)N[C@H](C(=O)N[C@@H](Cc1c[nH]c2ccccc12)C(=O)NCC(=O)O)C(C)C)C(C)C [compound 22] (H-MWESILDEHVQRVWG-OH) | 99.6% | – |
| – | 7.5 to 15 µM | – | CC[C@H](C)[C@@H]1NC(=O)[C@H](CC(C)C)NC(=O)[C@H](CC(C)C)NC(=O)[C@H](Cc2c[nH]c3ccccc23)NC(=O)[C@H](CCSC)NC(=O)[C@H](CCCNC(=N)N)NC(=O)[C@H](CO)NC(=O)[C@H](CCSC)NC(=O)[C@@H](N)CCCCNC(=O)CNC(=O)[C@H](Cc2c[nH]c3ccccc23)NC(=O)[C@H](Cc2ccccc2)NC(=O)[C@H](CO)NC1=O [compound 25] (HELM PEPTIDE1{K.M.S.R.M.W.L.L.I.S.F.W.G}$PEPTIDE1,PEPTIDE1,1:R3-13:R2$$$V2.0; bridges inferred) | 97% | – |
| – | 7.5 to 15 µM | – | CC[C@H](C)[C@@H]1NC(=O)[C@H](CC(C)C)NC(=O)[C@H](Cc2ccccc2)NC(=O)[C@H](Cc2c[nH]c3ccccc23)NC(=O)[C@H](CCSC)NC(=O)[C@@H](N)CCCCNC(=O)CNC(=O)[C@H](Cc2c[nH]c3ccccc23)NC(=O)[C@H](Cc2ccccc2)NC(=O)[C@H](CO)NC1=O [compound 26] (HELM PEPTIDE1{K.M.W.F.L.I.S.F.W.G}$PEPTIDE1,PEPTIDE1,1:R3-10:R2$$$V2.0; bridges inferred) | 88% | – |
| – | > 30 µM | – | CC[C@H](C)[C@@H]1NC(=O)[C@H](CC(C)C)NC(=O)[C@H](Cc2ccc(O)cc2)NC(=O)[C@H](Cc2c[nH]c3ccccc23)NC(=O)[C@H](CCSC)NC(=O)[C@H](CCCNC(=N)N)NC(=O)[C@H](CO)NC(=O)[C@H](CCSC)NC(=O)[C@@H](N)CCCCNC(=O)CNC(=O)[C@H](Cc2c[nH]c3ccccc23)NC(=O)[C@H](Cc2ccccc2)NC(=O)[C@H](CO)NC1=O [compound 27] (HELM PEPTIDE1{K.M.S.R.M.W.Y.L.I.S.F.W.G}$PEPTIDE1,PEPTIDE1,1:R3-13:R2$$$V2.0; bridges inferred) | 96% | – |
| – | 22.5 to 30 µM | – | CC[C@H](C)[C@@H]1NC(=O)[C@H](CC(C)C)NC(=O)[C@H](Cc2ccccc2)NC(=O)[C@H](Cc2c[nH]c3ccccc23)NC(=O)[C@H](CCSC)NC(=O)[C@H](CCCNC(=N)N)NC(=O)[C@H](CO)NC(=O)[C@H](CCSC)NC(=O)[C@@H](N)CCCCNC(=O)CNC(=O)[C@H](Cc2c[nH]c3ccccc23)NC(=O)[C@H](CC(C)C)NC(=O)[C@H](CO)NC1=O [compound 28] (HELM PEPTIDE1{K.M.S.R.M.W.F.L.I.S.L.W.G}$PEPTIDE1,PEPTIDE1,1:R3-13:R2$$$V2.0; bridges inferred) | 91% | – |
| 1 to 10 µM | 7.5 to 15 µM | 1.56 | CC[C@H](C)[C@H](NC(=O)[C@H](CC(C)C)NC(=O)[C@@H](NC(=O)[C@H](Cc1c[nH]c2ccccc12)NC(=O)[C@H](CCSC)NC(C)=O)[C@@H](C)CC)C(=O)N[C@@H](CO)C(=O)N[C@@H](Cc1ccccc1)C(=O)N[C@@H](Cc1c[nH]c2ccccc12)C(=O)NCC(=O)OC [compound 222] (HELM PEPTIDE1{[ac].M.W.I.L.I.S.F.W.G.[CO[*:1]]}$$$$V2.0) | – | 98.2% |
| – | < 7.5 µM | 0.7 | CC[C@H](C)[C@H](NC(=O)[C@H](CC(C)C)NC(=O)[C@@H](NC(=O)[C@H](Cc1c[nH]c2ccccc12)NC(=O)[C@H](CCSC)NCc1ccccc1)[C@@H](C)CC)C(=O)N[C@@H](CO)C(=O)N[C@@H](Cc1ccccc1)C(=O)N[C@@H](Cc1c[nH]c2ccccc12)C(=O)NCC(=O)O [compound 223] (HELM PEPTIDE1{[CSCC[C@H](NCc1ccccc1)C(=O)[*:2]].W.I.L.I.S.F.W.G}$$$$V2.0) | – | 101% |
| 0.4 to 1 µM | < 7.5 µM | 0.7 | CC[C@H](C)[C@H](NC(=O)[C@H](CC(C)C)NC(=O)[C@@H](NC(=O)[C@H](Cc1c[nH]c2ccccc12)NC(=O)[C@H](CCSC)NC(=O)C(C)(C)C)[C@@H](C)CC)C(=O)N[C@@H](CO)C(=O)N[C@@H](Cc1ccccc1)C(=O)N[C@@H](Cc1c[nH]c2ccccc12)C(=O)NCC(=O)O [compound 225] (HELM PEPTIDE1{[CC(C)(C)C(=O)[*:2]].M.W.I.L.I.S.F.W.G}$$$$V2.0) | – | 101% |
